Laboratory results from patent US8257734B2, “PQS and its conjugates as adjuvants and their uses in pharmaceutical compositions” (Helmhotlz-Zentrum Fuer Infektions-Forschung GmbH, priority 2005, dated 2012).
Entries after “also recorded” stand apart in the source; their conditions may differ.

How the values were obtained:
[1] = system: IL-2; conditions: cited from earlier work
[2] = system: β-gal-specific IgA; assay: β-gal-specific IgA in lung and vaginal lavages after i.n. immunization; format: in vivo, BALB/c (H-2d) mice; conditions: day 38, vs β-gal alone
Description: Experimental protocol: at day 38, mice were sacrificed and the final sampling was performed. Vaginal and lung lavages were obtained by flushing the organs with 1 ml of PBS supplemented with 50 mM EDTA, 0.1% BSA, and 10 mM PMSF. Lavages were then centrifuged to remove debris (10 min at 3000×g), and supernatant fluids were stored at −20° C. To determine the concentration of total IgA present in the lung and vaginal lavages, serial dilutions of the corresponding samples were incubated in microtiter plates that were previously coated with goat anti-mouse IgA (Sigma Chemie), as capture antibodies (100 μl/well). Serial dilutions of purified mouse IgA (Sigma Chemie) were used to generate a standard curve.

[3] = system: β-gal antigen-specific IgG1; assay: Isotyp ELISA of β-gal-specific IgG subclasses in sera of vaccinated mice; format: in vivo
Description: Isotyp ELISA: 96-well Nunc-Immuno MaxiSorp assay plates (Nunc, Roskilde, Denmark) were coated with 100 μl of β-gal (Boehringer, Mannheim, Germany) at 5 μg/ml in 0.05 M carbonate buffer (pH 9.6) per well. Serial two-fold dilutions of sera or lavages in PBS with 1% BSA and 0.05% Tween 20 were added (100 μl/well), and plates incubated for 2 h at 37° C. After washing, biotin-conjugated rat anti-mouse IgG1 or IgG2a (Pharmingen, Hamburg, Germany) were added to determine IgG subclasses. Plates were incubated for an additional 1 h at 37° C. After four washes, 100 μl of peroxidase-conjugated streptavidin (Pharmingen) was added to cells and plates incubated at 37° C. for 30 min. […] To determine the concentration of IgG subclasses in serum, standard curves were obtained by coating the wells with an isotype-specific goat anti-mouse IgG, and then by incubating with purified mouse IgG1 or IgG2 antibodies (Dianova, Hamburg, Germany).

[4] = system: β-gal-specific IgG; assay: β-gal-specific serum IgG ELISA after immunization with β-gal plus adjuvant; format: in vivo, BALB/c (H-2d) mice; conditions: 30 μg β-gal + 10 μg adjuvant, vs β-gal alone
Description: Experimental protocol: six-eight weeks-old female BALB/c (H-2d) mice were purchased from Harlan Winkelmann GmbH (Borchen, Germany) and treated in accordance with local and European Community guidelines. Groups of 5 mice each were immunized on day 1, 14 and 28 with 30 μg of β-gal (Boehringer, Mannheim, Germany), alone or as an admixture with 10 μg PQS-PEG or with 10 μg PQS (structure of said compounds are shown in FIG. 1). For intranasal (i.n.) immunization, 10 μl were applied to each naris, whereas for the s.c. injection β-gal with or without c-PQS-PEG or PQS, respectively, was resuspended in a volume of 20 μl PBS per animal. Serum samples were collected at day 38 after immunization and stored at −20° C. prior to determination of β-gal-specific antibodies. 96-well Nunc-Immuno MaxiSorp assay plates (Nunc, Roskilde, Denmark) were coated with 100 μl of β-gal (Boehringer, Mannheim, Germany) at 5 μg/ml in 0.05 M carbonate buffer (pH 8.2) per well. Serial two-fold dilutions of sera in PBS with 1% BSA and 0.05% Tween 20 were added (100 μl/well), and plates incubated for 16 h at 37° C. After washing, biotinylated γ-chain-specific goat anti-mouse IgG (Sigma Chemie, Deisenhofen, Germany) was added, and plates were incubated for an additional 1 h at 37° C. After four washes, 100 μl of peroxidase-conjugated streptavidin (Pharmingen) was added to cells and plates incubated at 37° C. for 30 min.

[5] = system: spleenocytes stimulated with ConA; conditions: cited from earlier work
[6] = system: IFN-γ, IL-2, IL-4, IL-5, and TNFα; assay: Cytometric Bead Array of cytokines in supernatants of in vitro re-stimulated spleen cells; format: in vivo, mice; conditions: vs β-Gal without additional adjuvant
Description: Experimental protocol: Spleens from vaccinated mice were removed and pooled for analysis of cellular immune responses. The protocol for vaccination was identical to the protocol described in Example 2. Cells were grown in RPMI 1640 supplemented with 10% fetal calf serum, 100 U/ml of penicillin, 50 μg/ml of streptomycin, 5×10^−5 M 2-mercaptoethanol and 1 mM L-glutamine (GIBCO BRL, Karlsruhe, Germany) and maintained at 37° C. in a humidified 5% CO2 atmosphere. Spleen cell suspensions were adjusted to 5×10^6 cells/ml in complete medium, cells were seeded with 100 μl per well in a flat-bottomed 96-well microtiter plate (Nunc) and plates were incubated for 4 days in the presence of different concentrations of soluble β-gal.
To characterize the type of Th response stimulated following immunization, the content of IFN-γ, IL-2, IL-4, IL-5, and TNFα was measured in supernatants from in vitro re-stimulated spleen cells (FIG. 6A for s.c. immunization and FIG. 6B for i.n. immunization) by the Cytometric Bead Array. Culture supernatants from proliferating cells were collected on days 2 and 4, and stored at −70° C. […] The probes were analyzed subsequently by flow cytometry as described in the protocol of BD.

[7] = system: TNF-alpha; conditions: cited from earlier work
[8] = system: P815 target cells; assay: Cr51 release cytotoxicity assay with effector cells of immunized mice; format: in vivo; conditions: mice immunized with β-gal/PQS subcutaneously; FIG. 8A; vs non-immunized mice
Description: This system is based on the measurement of the Cr51 release of target cells due to specific lysis. In particular, with the amount of radioactivity detectable in the supernatant, the specific lysis can be calculated.
Prior the Cytotoxicity Assay, P815 target cells were split and resuspended and adjusted to 2×10E6 cells/300 μl DMEM. The P815 cells were incubated with an MHC class I β-gal specific peptide for 1.5 h, while slightly agitating the cells every 15 min to improve binding between the peptide and the MHC class I molecule. After washing the cells, cells were resuspended in 150 μl medium without FCS and cultured for 2 h in the presence of 100 μci 51Chrom. Every 30 min, the cell suspension was agitated slightly. Subsequently, cells were washed twice in DMEM plus 10% FCS to remove unbound 51Cr. The cells were adjusted to […]. The effector cells were diluted serially (1×10E6, 0.5×10E6, 0.25×10E6, and 0.125×10E6). 50 μl of the murine target cells (10000 cells) were added to the effector cells, thus, the ratio of effector cells/target cells is 100:1, 50:1, 25:1, and 12.5:1, respectively. […] 25 or 30 μl, supernatant was taken from each of the wells and radioactivity according to standard practice determined. The specific lysis was calculated taking spontaneous lysis and maximal lysis into account.

[9] = system: human peripheral blood mononuclear cells; conditions: stimulated with the lectin ConA; cited from earlier work
[10] = system: spleen cells; assay: [3H]thymidine proliferation of spleen cells from vaccinated mice restimulated in vitro with β-gal; format: in vivo, BALB/c (H-2d) mice; conditions: day 38, vs β-gal alone
Description: Experimental protocol: Spleens were removed and pooled for analysis of cellular immune responses. […] Spleen cell suspensions were adjusted to 5×10^6 cells/ml in complete medium, cells were seeded with 100 μl per well in a flat-bottomed 96-well microtiter plate (Nunc) and plates were incubated for 4 days in the presence of different concentrations of soluble β-gal. That is, T cell mediated immune responses were investigated at day 38 by measuring the proliferation after in vitro restimulation with β-Gal of cells which have been recovered from spleens before. […] Each concentration was tested in quadruplicate. During the final 18 h of culture, 1 μCi of [3H]thymidine (Amersham International, Freiburg, Germany) was added to each well. […] The results are expressed as the arithmetic mean of [^3H]thymidine uptake in cpm.
Thirty eight days following vaccination, spleens cells were purified, re-stimulated in vitro in the presence of various amounts of β-galactosidase and their proliferative capacity was estimated by measuring the incorporation of [3H]thymidine into their DNA using a β-scintillation counter.

[11] = system: splenic IFNγ, IL-2 and IL-4 producing cells; assay: ELISPOT of cytokine producing spleen cells from vaccinated mice; format: in vivo; conditions: for splenic IL-2 producing cells / splenic IL-4 producing cells: restimulation with β-Gal protein
Description: Experimental protocol: Spleens from vaccinated mice were removed and pooled for analysis of cellular immune responses. […] Spleen cell suspensions were adjusted to 5×10^6 cells/ml in complete medium, cells were seeded with 100 μl per well in a flat-bottomed 96-well microtiter plate (Nunc) and plates were incubated for 4 days in the presence of different concentrations of soluble β-gal.
For coating ELISPOT plates, said plates were incubated with 100 μl/well of purified capture antibody (10 μg/ml in coating buffer) at 4° C. overnight. […] The activated cells were seeded at 100 μl per well and incubate at 37° C., in a 5% CO2 humidified incubator for 24 hours or 48 h hours. After 5× washing steps with washing buffer and 1× step with distilled water, 100 μl/well of the biotinylated detection antibody with a concentration of 1 μg/ml in Assay Diluent was added and incubated at room temperature for 2 hrs. After further washing steps 100 μl/well of the AV-HRP at 1/1000 dilution in Assay Diluent was added and incubated at room temperature for 30 minutes. After further washing steps 100 μl/well of AEC Substrate Solution was added and developed at room temperature for 10-60 minutes until visible spots appeared. After washing steps with (3×) with 200 μl/well distilled water, the plates were air-dried and analyzed by counting the spots by an ELISPOT reader. Each concentration was tested in triplicates.

CCCCCCCC1=Nc2ccccc2C(=O)C1O (centres unmarked) [PQS, 2-heptyl-3-hydroxy-4-quinolone]
IL-2 release from PMCs ([1]; at low doses, stimulated with ConA): no effect
IL-2 secretion [1]: inhibited
β-gal-specific IgA in lung lavage [2]: slight increase
β-gal-specific IgA in vaginal lavage [2]: slight increase
antigen-specific antibody response ([3]; i.n. immunization): strong antigen-specific antibody response
antigen specific antibodies of the IgG1 subtype in sera ([3]; intranasal administration, FIG. 5B): strongly increased
expression of the IgG1 isotype in sera ([3]; subcutaneous administration, FIG. 5A): strongly increased
β-gal specific IgG titer in sera ([4]; i.n. immunization day 1, 14, 28, sera day 38): increased expression; also recorded: remarkably increased
β-gal specific IgG titer in sera ([4]; s.c. (parenteral) immunization day 1, 14, 28): remarkably increased
proliferation of spleenocytes [5]: inhibiting activity
levels of IL-5 ([6]; i.n. route): significantly higher
levels of IL-5 ([6]; s.c. route): significantly higher
TNF-alpha production ([7]; at high concentrations): enhances
TNF-alpha release from PMCs ([7]; at low doses, stimulated with LPS): no effect
specific lysis of peptide-pulsed target cells by β-gal restimulated CD8+ T-cells [8]: demonstrates the cytotoxic capacity
proliferation of human peripheral blood mononuclear cells [9]: proliferation inhibiting activity
spleen cell proliferation ([3H]thymidine uptake) after β-gal restimulation ([10]; i.n. immunization): efficient adjuvant; also recorded: efficient proliferative response at low amounts of antigen; also recorded: statistically significant increment
spleen cell proliferation ([3H]thymidine uptake) after β-gal restimulation ([10]; s.c. immunization): efficient adjuvant; also recorded: further increase in proliferation; also recorded: statistically significant increment
splenic IL-2 producing cells ([11]; i.n. route): strong expression
splenic IL-4 producing cells ([11]; i.n. route): strong expression
amounts of IFNγ expressing cells ([11]; i.n. vaccination, compared with s.c. vaccination): lower to the level determined after s.c. vaccination
expression of Th1 and Th2 cytokines after restimulation of spleen cells ([11]; intranasal immunization (FIG. 7B)): increased expression
number of splenic IFNγ producing cells ([11]; parenteral (s.c.) vaccination, restimulation with MHC class I-restricted β-Gal peptide (CD8 epitope), FIG. 7A): increment
splenic IL-2 producing cells ([11]; s.c. route): strong expression
splenic IL-4 producing cells ([11]; s.c. route): strong expression
expression of Th1 and Th2 cytokines after restimulation of spleen cells ([11]; subcutaneous immunization (FIG. 7A)): increased expression
